According to ChEMBL document CHEMBL1137914, “Optimizing the antibacterial activity of a lead structure discovered by "SAR by MS" technology” (Bioorg Med Chem Lett, 2004):

System: Staphylococcus aureus
Experiment: Minimal inhibitory concentration required against Staphylococcus aureus ATCC 13709 was determined
Assay type: functional

| SMILES | MIC [µM] |
| --- | --- |
| CCc1c(C)nc2ccc(C(=O)Nc3cccc(-c4ccc(C(=O)NC(C(=O)N5CCNCC5)c5ccc(OCCCN(C)C)cc5)o4)c3)cc2c1Cl (stereo not given) | > 100 |

System: Escherichia coli
Experiment: Minimal inhibitory concentration required against Escherichia coli ATCC 25922 was determined; values ranges from 6-13
Assay type: functional

| SMILES | MIC [µM] |
| --- | --- |
| CN(C)CCCOc1ccc(C(NC(=O)c2ccc(-c3cccc(NC(=O)c4ccc(Br)cc4)c3)o2)C(=O)N2CCNCC2)cc1 (stereo not given) | < 13 |
| CN(C)CCCOc1ccc(C(NC(=O)c2ccc(-c3cccc(NC(=O)c4ccc(-c5ccccc5)cc4)c3)o2)C(=O)N2CCNCC2)cc1 (stereo not given) | < 13 |
| CN(C)CCCOc1ccc(C(NC(=O)c2ccc(-c3cccc(NC(=O)c4ccc5cc(Br)ccc5c4)c3)o2)C(=O)N2CCNCC2)cc1 (stereo not given) | < 13 |

System: Escherichia coli
Experiment: Antibacterial activity against Escherichia coli was determined at 100 uM
Assay type: functional

| SMILES | inhibition at 100 µM [%] |
| --- | --- |
| CN(C)CCCOc1ccc(C(NC(=O)c2ccc(-c3cccc(NC(=O)c4ccc5ncccc5c4)c3)o2)C(=O)N2CCNCC2)cc1 (stereo not given) | < 75 |
| CN(C)CCCOc1ccc(C(NC(=O)c2ccc(-c3cccc(NC(=O)c4ccccc4I)c3)o2)C(=O)N2CCNCC2)cc1 (stereo not given) | < 75 |
| NCC[C@@H](NC(=O)c1ccc(-c2cccc(NC(=O)c3cnc4ccccc4c3)c2)o1)C(=O)N1CCNCC1 | < 75 |
| NCC[C@@H](NC(=O)c1ccc(-c2cccc(NC(=O)c3ccc4nc(O)c(O)nc4c3)c2)o1)C(=O)N1CCNCC1 | < 75 |
| CN(C)CCCOc1ccc(C(NC(=O)c2ccc(-c3cccc(NS(=O)(=O)c4ccc5nc(O)c(O)nc5c4)c3)o2)C(=O)N2CCNCC2)cc1 (stereo not given) | < 75 |
| CN(C)CCCOc1ccc(C(NC(=O)c2ccc(-c3cccc(NC(=O)c4ccccc4)c3)o2)C(=O)N2CCNCC2)cc1 (stereo not given) | < 75 |
| CN(C)CCCOc1ccc(C(NC(=O)c2ccc(-c3cccc(NC(=O)CCCN(C)C)c3)o2)C(=O)N2CCNCC2)cc1 (stereo not given) | < 75 |
| CN(C)CCCOc1ccc(C(NC(=O)c2ccc(-c3cccc(NC(=O)c4cnc5ccccc5c4)c3)o2)C(=O)N2CCNCC2)cc1 (stereo not given) | < 75 |
| CN(C)CCCOc1ccc(C(NC(=O)c2ccc(-c3cccc(N)c3)o2)C(=O)N2CCNCC2)cc1 (stereo not given) | < 75 |
| CN(C)CCCOc1ccc(C(NC(=O)c2ccc(-c3cccc(NC(=O)c4cnccn4)c3)o2)C(=O)N2CCNCC2)cc1 (stereo not given) | < 75 |
| CN(C)CCCOc1ccc(C(NC(=O)c2ccc(-c3cccc(NC(=O)c4ccc5nc(O)c(O)nc5c4)c3)o2)C(N)=O)cc1 (stereo not given) | < 75 |
| NCC[C@@H](NC(=O)c1ccc(-c2cccc(NC(=O)c3nncs3)c2)o1)C(=O)N1CCNCC1 | < 75 |
| CN(C)CCCOc1ccc(C(NC(=O)c2ccc(-c3cccc(NC(=O)c4ccc(Cl)c(Cl)c4)c3)o2)C(=O)N2CCNCC2)cc1 (stereo not given) | < 75 |

System: Escherichia coli
Experiment: In vitro dissociation constant of compound required for inhibition of Escherichia coli translation was determined
Assay type: functional, organism-based

| SMILES | IC50 [µM] |
| --- | --- |
| CN(C)CCCOc1ccc(C(NC(=O)c2ccc(-c3cccc(NC(=O)c4ccc5ncccc5c4)c3)o2)C(=O)N2CCNCC2)cc1 (stereo not given) | 6 |
| CN(C)CCCOc1ccc(C(NC(=O)c2ccc(-c3cccc(NC(=O)c4ccccc4I)c3)o2)C(=O)N2CCNCC2)cc1 (stereo not given) | 38 |
| NCC[C@@H](NC(=O)c1ccc(-c2cccc(NC(=O)c3cnc4ccccc4c3)c2)o1)C(=O)N1CCNCC1 | 46 |
| NCC[C@@H](NC(=O)c1ccc(-c2cccc(NC(=O)c3ccc4nc(O)c(O)nc4c3)c2)o1)C(=O)N1CCNCC1 | 14 |
| CN(C)CCCOc1ccc(C(NC(=O)c2ccc(-c3cccc(NS(=O)(=O)c4ccc5nc(O)c(O)nc5c4)c3)o2)C(=O)N2CCNCC2)cc1 (stereo not given) | 33 |
| CN(C)CCCOc1ccc(C(NC(=O)c2ccc(-c3cccc(NC(=O)c4ccccc4)c3)o2)C(=O)N2CCNCC2)cc1 (stereo not given) | 40 |
| CN(C)CCCOc1ccc(C(NC(=O)c2ccc(-c3cccc(NC(=O)c4ccc(Br)cc4)c3)o2)C(=O)N2CCNCC2)cc1 (stereo not given) | 5 |
| CN(C)CCCOc1ccc(C(NC(=O)c2ccc(-c3cccc(NC(=O)CCCN(C)C)c3)o2)C(=O)N2CCNCC2)cc1 (stereo not given) | > 100 |
| CN(C)CCCOc1ccc(C(NC(=O)c2ccc(-c3cccc(NC(=O)c4cnc5ccccc5c4)c3)o2)C(=O)N2CCNCC2)cc1 (stereo not given) | 5 |
| CN(C)CCCOc1ccc(C(NC(=O)c2ccc(-c3cccc(N)c3)o2)C(=O)N2CCNCC2)cc1 (stereo not given) | > 100 |
| CN(C)CCCOc1ccc(C(NC(=O)c2ccc(-c3cccc(NC(=O)c4cnccn4)c3)o2)C(=O)N2CCNCC2)cc1 (stereo not given) | 15 |
| CN(C)CCCOc1ccc(C(NC(=O)c2ccc(-c3cccc(NC(=O)c4ccc(-c5ccccc5)cc4)c3)o2)C(=O)N2CCNCC2)cc1 (stereo not given) | 9 |
| CN(C)CCCOc1ccc(C(NC(=O)c2ccc(-c3cccc(NC(=O)c4ccc5nc(O)c(O)nc5c4)c3)o2)C(N)=O)cc1 (stereo not given) | 10 |
| NCC[C@@H](NC(=O)c1ccc(-c2cccc(NC(=O)c3nncs3)c2)o1)C(=O)N1CCNCC1 | > 100 |
| CN(C)CCCOc1ccc(C(NC(=O)c2ccc(-c3cccc(NC(=O)c4ccc(Cl)c(Cl)c4)c3)o2)C(=O)N2CCNCC2)cc1 (stereo not given) | 4 |
| CN(C)CCCOc1ccc(C(NC(=O)c2ccc(-c3cccc(NC(=O)c4ccc5cc(Br)ccc5c4)c3)o2)C(=O)N2CCNCC2)cc1 (stereo not given) | 5 |
| CCc1c(C)nc2ccc(C(=O)Nc3cccc(-c4ccc(C(=O)NC(C(=O)N5CCNCC5)c5ccc(OCCCN(C)C)cc5)o4)c3)cc2c1Cl (stereo not given) | 0.78 |

System: Staphylococcus aureus
Experiment: Minimal inhibitory concentration required against Staphylococcus aureus ATCC 13709 was determined; values ranges from 3-6
Assay type: functional

| SMILES | MIC [µM] |
| --- | --- |
| CN(C)CCCOc1ccc(C(NC(=O)c2ccc(-c3cccc(NC(=O)c4ccc(-c5ccccc5)cc4)c3)o2)C(=O)N2CCNCC2)cc1 (stereo not given) | < 6 |

System: Escherichia coli
Experiment: Minimal inhibitory concentration required against Escherichia coli ATCC 25922 was determined; values ranges from 13-25
Assay type: functional

| SMILES | MIC [µM] |
| --- | --- |
| CCc1c(C)nc2ccc(C(=O)Nc3cccc(-c4ccc(C(=O)NC(C(=O)N5CCNCC5)c5ccc(OCCCN(C)C)cc5)o4)c3)cc2c1Cl (stereo not given) | < 25 |

System: Staphylococcus aureus
Experiment: Minimal inhibitory concentration required against Staphylococcus aureus ATCC 13709 was determined; values ranges from […]
Assay type: functional

| SMILES | MIC [µM] |
| --- | --- |
| CN(C)CCCOc1ccc(C(NC(=O)c2ccc(-c3cccc(NC(=O)c4ccc(Br)cc4)c3)o2)C(=O)N2CCNCC2)cc1 (stereo not given) | < 25 |
| CN(C)CCCOc1ccc(C(NC(=O)c2ccc(-c3cccc(NC(=O)c4ccc5cc(Br)ccc5c4)c3)o2)C(=O)N2CCNCC2)cc1 (stereo not given) | < 25 |

System: Escherichia coli
Experiment: In vitro dissociation constant of compound required for inhibition of Escherichia coli translation by 50% was determined
Assay type: functional

| SMILES | Kd [µM] |
| --- | --- |
| NCC[C@@H](NC(=O)c1ccc(-c2cccc(NC(=O)c3ccc4nc(O)c(O)nc4c3)c2)o1)C(=O)N1CCNCC1 | 6.5 |

System: Staphylococcus aureus
Experiment: Antibacterial activity against Staphylococcus aureus was determined at 100 uM
Assay type: functional

| SMILES | inhibition at 100 µM [%] |
| --- | --- |
| CN(C)CCCOc1ccc(C(NC(=O)c2ccc(-c3cccc(NC(=O)c4ccc5ncccc5c4)c3)o2)C(=O)N2CCNCC2)cc1 (stereo not given) | < 75 |
| CN(C)CCCOc1ccc(C(NC(=O)c2ccc(-c3cccc(NC(=O)c4ccccc4I)c3)o2)C(=O)N2CCNCC2)cc1 (stereo not given) | < 75 |
| NCC[C@@H](NC(=O)c1ccc(-c2cccc(NC(=O)c3cnc4ccccc4c3)c2)o1)C(=O)N1CCNCC1 | < 75 |
| NCC[C@@H](NC(=O)c1ccc(-c2cccc(NC(=O)c3ccc4nc(O)c(O)nc4c3)c2)o1)C(=O)N1CCNCC1 | < 75 |
| CN(C)CCCOc1ccc(C(NC(=O)c2ccc(-c3cccc(NS(=O)(=O)c4ccc5nc(O)c(O)nc5c4)c3)o2)C(=O)N2CCNCC2)cc1 (stereo not given) | < 75 |
| CN(C)CCCOc1ccc(C(NC(=O)c2ccc(-c3cccc(NC(=O)c4ccccc4)c3)o2)C(=O)N2CCNCC2)cc1 (stereo not given) | < 75 |
| CN(C)CCCOc1ccc(C(NC(=O)c2ccc(-c3cccc(NC(=O)CCCN(C)C)c3)o2)C(=O)N2CCNCC2)cc1 (stereo not given) | < 75 |
| CN(C)CCCOc1ccc(C(NC(=O)c2ccc(-c3cccc(NC(=O)c4cnc5ccccc5c4)c3)o2)C(=O)N2CCNCC2)cc1 (stereo not given) | < 75 |
| CN(C)CCCOc1ccc(C(NC(=O)c2ccc(-c3cccc(N)c3)o2)C(=O)N2CCNCC2)cc1 (stereo not given) | < 75 |
| CN(C)CCCOc1ccc(C(NC(=O)c2ccc(-c3cccc(NC(=O)c4cnccn4)c3)o2)C(=O)N2CCNCC2)cc1 (stereo not given) | < 75 |
| CN(C)CCCOc1ccc(C(NC(=O)c2ccc(-c3cccc(NC(=O)c4ccc5nc(O)c(O)nc5c4)c3)o2)C(N)=O)cc1 (stereo not given) | < 75 |
| NCC[C@@H](NC(=O)c1ccc(-c2cccc(NC(=O)c3nncs3)c2)o1)C(=O)N1CCNCC1 | < 75 |
| CN(C)CCCOc1ccc(C(NC(=O)c2ccc(-c3cccc(NC(=O)c4ccc(Cl)c(Cl)c4)c3)o2)C(=O)N2CCNCC2)cc1 (stereo not given) | < 75 |

System: Proteus vulgaris
Experiment: Minimal inhibitory concentration required against Proteus vulgaris was determined; values ranges from 50-100

| SMILES | MIC [µM] |
| --- | --- |
| CN(C)CCCOc1ccc(C(NC(=O)c2ccc(-c3cccc(NC(=O)c4ccc(-c5ccccc5)cc4)c3)o2)C(=O)N2CCNCC2)cc1 (stereo not given) | < 100 |

System: Enterococcus faecalis
Experiment: Minimal inhibitory concentration required against Enterococcus faecalis was determined; values ranges from 3-6

| SMILES | MIC [µM] |
| --- | --- |
| CN(C)CCCOc1ccc(C(NC(=O)c2ccc(-c3cccc(NC(=O)c4ccc(-c5ccccc5)cc4)c3)o2)C(=O)N2CCNCC2)cc1 (stereo not given) | < 6 |

System: Streptococcus pyogenes
Experiment: Minimal inhibitory concentration required against Streptococcus pyogenes was determined; values ranges from 3-6

| SMILES | MIC [µM] |
| --- | --- |
| CN(C)CCCOc1ccc(C(NC(=O)c2ccc(-c3cccc(NC(=O)c4ccc(-c5ccccc5)cc4)c3)o2)C(=O)N2CCNCC2)cc1 (stereo not given) | < 6 |
